The source made the active and inactive calls.
How the values were obtained:
Assay type in all cases: functional
[1] = biological target: Lymphokine-activated killer T-cell-originated protein kinase (Homo sapiens, UniProt Q96KB5);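 note: value comes from a kinase panel screen in which TOPK was one of the panel members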
[2] = biological target: Serine/threonine-protein kinase MRCK alpha (Homo sapiens, UniProt Q5VT25)
[3] = biological target: Tyrosine-protein kinase JAK2 (Homo sapiens, UniProt O60674);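 note: JAK2 tested as one member of a kinase panel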
[4] = biological target: Vascular endothelial growth factor receptor 3 (Homo sapiens, UniProt P35916);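 note: value from a kinome-wide profiling panel, with FLT4 as the panel member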
[5] = biological target: Testis-specific serine/threonine-protein kinase 2 (Homo sapiens, UniProt Q96PF2);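 note: part of the Navigating the Kinome panel, target entry STK22B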
[6] = biological target: Receptor-type tyrosine-protein kinase FLT3 (Homo sapiens, UniProt P36888);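 note: FLT3 was tested as one member of a kinome-wide kinase panel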
[7] = biological target: Death-associated protein kinase 3 (Homo sapiens, UniProt O43293);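 note: measured as one member of a kinome-wide profiling panel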
[8] = biological target: Serine/threonine-protein kinase PAK 4 (Homo sapiens, UniProt O96013);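 note: value obtained within a kinome profiling panel in which PAK4 was one of the panel members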
[9] = biological target: Mitogen-activated protein kinase kinase kinase kinase 5 (Homo sapiens, UniProt Q9Y4K4);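 note: measured as one member of a kinome-spanning kinase panel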
Mitogen-activated protein kinase kinase kinase kinase 5, sequence (Q9Y4K4 whole entry): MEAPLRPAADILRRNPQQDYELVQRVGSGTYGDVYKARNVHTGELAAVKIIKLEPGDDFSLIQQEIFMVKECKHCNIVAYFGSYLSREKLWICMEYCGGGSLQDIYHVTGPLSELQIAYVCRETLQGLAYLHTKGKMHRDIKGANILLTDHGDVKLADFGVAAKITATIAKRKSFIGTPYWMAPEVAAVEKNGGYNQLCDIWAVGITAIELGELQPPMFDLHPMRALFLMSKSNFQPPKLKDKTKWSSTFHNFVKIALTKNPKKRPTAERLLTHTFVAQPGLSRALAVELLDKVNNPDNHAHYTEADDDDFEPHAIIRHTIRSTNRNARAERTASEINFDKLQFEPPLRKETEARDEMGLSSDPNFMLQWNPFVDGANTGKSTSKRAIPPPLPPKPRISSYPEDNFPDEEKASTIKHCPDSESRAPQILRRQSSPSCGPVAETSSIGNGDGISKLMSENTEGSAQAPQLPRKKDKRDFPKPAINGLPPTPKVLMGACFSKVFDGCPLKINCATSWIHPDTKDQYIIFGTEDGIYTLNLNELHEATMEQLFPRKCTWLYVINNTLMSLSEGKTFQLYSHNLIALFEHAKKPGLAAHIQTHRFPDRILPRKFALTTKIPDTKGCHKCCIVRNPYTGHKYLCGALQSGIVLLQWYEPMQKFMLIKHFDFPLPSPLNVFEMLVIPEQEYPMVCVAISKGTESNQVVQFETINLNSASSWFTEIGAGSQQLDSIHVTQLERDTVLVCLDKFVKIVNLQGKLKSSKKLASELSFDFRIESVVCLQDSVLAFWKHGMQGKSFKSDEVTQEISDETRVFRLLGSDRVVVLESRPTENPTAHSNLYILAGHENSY

[10] = biological target: Casein kinase II subunit alpha (Homo sapiens, UniProt P68400)
Casein kinase II subunit alpha, sequence (P68400 whole entry): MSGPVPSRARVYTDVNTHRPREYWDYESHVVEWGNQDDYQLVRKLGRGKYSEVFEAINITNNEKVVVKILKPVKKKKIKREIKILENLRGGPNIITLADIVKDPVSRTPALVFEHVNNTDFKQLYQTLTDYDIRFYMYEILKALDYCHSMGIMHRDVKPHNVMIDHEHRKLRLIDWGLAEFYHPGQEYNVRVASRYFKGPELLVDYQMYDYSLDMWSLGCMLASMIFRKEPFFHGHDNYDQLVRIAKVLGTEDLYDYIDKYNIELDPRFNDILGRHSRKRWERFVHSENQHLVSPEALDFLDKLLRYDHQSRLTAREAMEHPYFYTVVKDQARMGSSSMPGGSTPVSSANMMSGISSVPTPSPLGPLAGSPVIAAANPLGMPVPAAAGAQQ

[11] = biological target: cAMP-dependent protein kinase catalytic subunit alpha (Homo sapiens, UniProt P17612)
[12] = biological target: Serine/threonine-protein kinase 3 (Homo sapiens, UniProt Q13188);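 note: measured as one member of a kinome-wide kinase panel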
[13] = biological target: Tyrosine-protein kinase Fer (Homo sapiens, UniProt P16591);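 note: FER tested as one member of a kinome panel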
[14] = biological target: Interleukin-1 receptor-associated kinase 1 (Homo sapiens, UniProt P51617);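 note: IRAK1 tested as one member of a kinome panel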
[15] = biological target: Tyrosine-protein kinase ITK/TSK (Homo sapiens, UniProt Q08881);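 note: affinity for ITK measured as one member of a broad kinase panel profiling binding across the kinome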
[16] = biological target: Cell division cycle 7-related protein kinase (Homo sapiens, UniProt O00311);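 note: value obtained from a kinome-wide kinase panel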
[17] = biological target: Tyrosine-protein kinase Lck (Homo sapiens, UniProt P06239);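 note: lck was assayed as one member of a kinase panel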
[18] = biological target: Mitogen-activated protein kinase kinase kinase 20 (Homo sapiens, UniProt Q9NYL2)
[19] = biological target: 3-phosphoinositide-dependent protein kinase 1 (Homo sapiens, UniProt O15530);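 note: value comes from the Navigating the Kinome panel, PDPK1 member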
3-phosphoinositide-dependent protein kinase 1, sequence (O15530 whole entry): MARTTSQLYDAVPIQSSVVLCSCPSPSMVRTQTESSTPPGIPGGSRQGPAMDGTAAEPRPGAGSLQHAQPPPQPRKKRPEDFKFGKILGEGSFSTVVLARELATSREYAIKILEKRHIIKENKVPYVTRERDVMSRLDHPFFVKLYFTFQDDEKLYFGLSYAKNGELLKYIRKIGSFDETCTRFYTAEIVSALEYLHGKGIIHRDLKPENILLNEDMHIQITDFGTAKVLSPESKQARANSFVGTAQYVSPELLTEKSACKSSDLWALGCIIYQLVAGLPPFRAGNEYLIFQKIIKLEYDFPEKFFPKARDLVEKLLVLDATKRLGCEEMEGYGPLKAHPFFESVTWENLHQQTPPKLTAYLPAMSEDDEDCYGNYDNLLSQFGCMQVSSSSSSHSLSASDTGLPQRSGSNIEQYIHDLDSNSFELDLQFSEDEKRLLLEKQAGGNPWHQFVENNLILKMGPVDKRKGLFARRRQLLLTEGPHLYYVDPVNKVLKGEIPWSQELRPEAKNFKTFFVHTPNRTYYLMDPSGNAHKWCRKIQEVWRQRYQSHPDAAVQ

[20] = biological target: Homeodomain-interacting protein kinase 4 (Homo sapiens, UniProt Q8NE63)
[21] = biological target: Casein kinase I isoform delta (Homo sapiens, UniProt P48730);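 note: measured as one member (CSNK1D) of a kinome panel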
Casein kinase I isoform delta, sequence (P48730 whole entry, canonical isoform): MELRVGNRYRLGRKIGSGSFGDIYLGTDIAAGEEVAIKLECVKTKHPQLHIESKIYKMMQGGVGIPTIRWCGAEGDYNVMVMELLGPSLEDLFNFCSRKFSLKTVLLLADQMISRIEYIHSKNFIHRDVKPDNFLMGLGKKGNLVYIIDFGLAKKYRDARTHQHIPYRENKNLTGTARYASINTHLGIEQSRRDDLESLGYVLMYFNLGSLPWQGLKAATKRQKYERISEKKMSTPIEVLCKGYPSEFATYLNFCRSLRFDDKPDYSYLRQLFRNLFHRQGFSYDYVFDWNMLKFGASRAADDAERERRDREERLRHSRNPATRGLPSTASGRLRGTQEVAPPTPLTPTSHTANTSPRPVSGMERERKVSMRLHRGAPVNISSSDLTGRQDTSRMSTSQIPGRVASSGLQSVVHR

[22] = biological target: Hepatocyte growth factor receptor (Homo sapiens, UniProt P08581);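 note: kinase panel profiling across the kinome, with MET as the panel member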
[23] = biological target: MAP kinase-activated protein kinase 5 (Homo sapiens, UniProt Q8IW41);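 note: measured as one member of a kinome panel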
[24] = biological target: Tyrosine-protein kinase SYK (Homo sapiens, UniProt P43405)
[25] = biological target: Tyrosine-protein kinase Lyn (Homo sapiens, UniProt P07948);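 note: lyn as one member of a kinase panel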
[26] = biological target: Serine/threonine-protein kinase Chk2 (Homo sapiens, UniProt O96017);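 note: CHEK2 entry within a kinome-wide screening panel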
[27] = biological target: Protein kinase C iota type (Homo sapiens, UniProt P41743);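 note: measured within a kinome-wide kinase panel, PRKCI as panel member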
Ephrin type-A receptor 2 = Ephrin type-A receptor 2 (Homo sapiens, UniProt P29317);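 note: EPHA2 tested as one member of a kinome-wide kinase panel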
[28] = biological target: Serine/threonine-protein kinase pim-3 (Homo sapiens, UniProt Q86V86);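 note: value obtained as one member of a broad kinase panel profiling effort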
[29] = biological target: cAMP-dependent protein kinase catalytic subunit PRKX (Homo sapiens, UniProt P51817)
[30] = biological target: Glycogen synthase kinase-3 alpha (Homo sapiens, UniProt P49840);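 note: GSK3A result taken from a broad kinome-wide kinase panel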
Glycogen synthase kinase-3 alpha, sequence (P49840 whole entry): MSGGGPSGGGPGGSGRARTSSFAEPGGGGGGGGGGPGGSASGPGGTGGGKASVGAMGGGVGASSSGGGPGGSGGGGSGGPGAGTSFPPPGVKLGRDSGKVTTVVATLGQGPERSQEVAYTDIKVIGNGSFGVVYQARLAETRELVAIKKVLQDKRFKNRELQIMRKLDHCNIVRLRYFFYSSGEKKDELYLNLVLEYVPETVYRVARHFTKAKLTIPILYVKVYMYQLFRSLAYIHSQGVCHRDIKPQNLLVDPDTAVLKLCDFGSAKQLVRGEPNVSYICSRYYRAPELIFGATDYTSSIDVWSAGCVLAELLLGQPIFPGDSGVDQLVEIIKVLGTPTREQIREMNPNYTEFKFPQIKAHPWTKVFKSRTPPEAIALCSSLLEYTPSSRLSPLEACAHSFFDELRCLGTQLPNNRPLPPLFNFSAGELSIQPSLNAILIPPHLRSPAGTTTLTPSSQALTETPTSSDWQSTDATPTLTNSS

[31] = biological target: Protein-tyrosine kinase 6 (Homo sapiens, UniProt Q13882)
[32] = biological target: Proto-oncogene tyrosine-protein kinase Src (Homo sapiens, UniProt P12931);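 note: SRC entry within a kinome-wide kinase profiling panel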
[33] = biological target: Serine/threonine-protein kinase N2 (Homo sapiens, UniProt Q16513)
[34] = biological target: Calcium/calmodulin-dependent protein kinase type II subunit gamma (Homo sapiens, UniProt Q13555)
Calcium/calmodulin-dependent protein kinase type II subunit gamma, sequence (Q13555 whole entry): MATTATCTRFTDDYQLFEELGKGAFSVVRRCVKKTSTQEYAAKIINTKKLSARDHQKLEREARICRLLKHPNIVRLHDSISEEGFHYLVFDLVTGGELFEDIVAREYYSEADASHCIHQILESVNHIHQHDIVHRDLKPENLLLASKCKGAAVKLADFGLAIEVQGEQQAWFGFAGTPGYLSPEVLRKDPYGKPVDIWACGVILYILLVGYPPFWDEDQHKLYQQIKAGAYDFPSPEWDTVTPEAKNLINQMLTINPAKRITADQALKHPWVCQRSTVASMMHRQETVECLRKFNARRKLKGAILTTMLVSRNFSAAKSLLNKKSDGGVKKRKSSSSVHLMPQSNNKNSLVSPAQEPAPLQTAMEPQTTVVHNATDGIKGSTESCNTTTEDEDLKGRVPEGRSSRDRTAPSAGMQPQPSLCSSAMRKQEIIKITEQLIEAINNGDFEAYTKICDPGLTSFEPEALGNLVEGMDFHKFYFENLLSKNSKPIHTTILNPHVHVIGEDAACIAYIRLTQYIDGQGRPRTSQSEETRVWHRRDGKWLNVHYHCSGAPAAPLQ

[35] = biological target: Homeodomain-interacting protein kinase 2 (Homo sapiens, UniProt Q9H2X6);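 note: measured within a kinome-wide kinase profiling panel, HIPK2 being one panel member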
Homeodomain-interacting protein kinase 2, sequence (Q9H2X6 whole entry): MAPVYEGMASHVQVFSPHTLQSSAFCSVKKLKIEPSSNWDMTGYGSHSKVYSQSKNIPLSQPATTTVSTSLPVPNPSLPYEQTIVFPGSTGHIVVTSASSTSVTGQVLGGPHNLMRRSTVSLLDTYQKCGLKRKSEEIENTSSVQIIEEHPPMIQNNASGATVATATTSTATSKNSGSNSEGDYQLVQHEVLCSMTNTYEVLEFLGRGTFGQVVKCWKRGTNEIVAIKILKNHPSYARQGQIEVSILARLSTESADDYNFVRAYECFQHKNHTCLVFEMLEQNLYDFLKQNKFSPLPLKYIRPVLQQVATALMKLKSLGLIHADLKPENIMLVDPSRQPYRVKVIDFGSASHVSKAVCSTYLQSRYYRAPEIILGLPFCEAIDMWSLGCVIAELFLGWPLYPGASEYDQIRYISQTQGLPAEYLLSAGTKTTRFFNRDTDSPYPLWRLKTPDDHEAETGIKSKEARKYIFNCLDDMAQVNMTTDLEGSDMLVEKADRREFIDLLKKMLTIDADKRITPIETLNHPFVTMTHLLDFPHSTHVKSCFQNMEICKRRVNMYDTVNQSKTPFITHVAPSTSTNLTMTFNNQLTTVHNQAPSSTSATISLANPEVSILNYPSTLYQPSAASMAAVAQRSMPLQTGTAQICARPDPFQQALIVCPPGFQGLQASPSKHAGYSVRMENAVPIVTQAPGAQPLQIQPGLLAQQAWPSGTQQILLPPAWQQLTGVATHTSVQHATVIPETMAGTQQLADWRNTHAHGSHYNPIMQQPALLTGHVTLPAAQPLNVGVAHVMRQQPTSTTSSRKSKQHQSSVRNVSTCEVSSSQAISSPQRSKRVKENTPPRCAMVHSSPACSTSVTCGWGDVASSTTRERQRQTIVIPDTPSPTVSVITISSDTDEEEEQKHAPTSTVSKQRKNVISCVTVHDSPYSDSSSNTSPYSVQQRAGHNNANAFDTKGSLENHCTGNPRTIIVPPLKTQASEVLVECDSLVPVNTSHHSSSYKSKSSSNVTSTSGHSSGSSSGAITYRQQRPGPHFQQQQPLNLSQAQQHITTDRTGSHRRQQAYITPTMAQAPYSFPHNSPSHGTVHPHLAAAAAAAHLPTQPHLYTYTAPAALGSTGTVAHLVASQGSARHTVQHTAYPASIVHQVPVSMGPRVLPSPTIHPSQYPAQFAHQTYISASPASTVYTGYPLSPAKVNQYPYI

[36] = biological target: Dual specificity tyrosine-phosphorylation-regulated kinase 1A (Homo sapiens, UniProt Q13627);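 note: measured against DYRK1A as one member of a broad kinome profiling panel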
Misshapen-like kinase 1 = Misshapen-like kinase 1 (Homo sapiens, UniProt Q8N4C8);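 note: kinome panel screen with MINK as the panel member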
[37] = biological target: RAC-alpha serine/threonine-protein kinase (Homo sapiens, UniProt P31749);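 note: AKT1 affinity measured as one member of a kinome-wide kinase profiling panel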
[38] = biological target: Tyrosine-protein kinase Srms (Homo sapiens, UniProt Q9H3Y6);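 note: SRMS measured as one member of a kinome-wide kinase profiling panel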
[39] = biological target: Serine/threonine-protein kinase BRSK1 (Homo sapiens, UniProt Q8TDC3);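 note: measured within a kinome-wide kinase panel, with the target listed as KIAA1811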
[40] = biological target: Serine/threonine-protein kinase D3 (Homo sapiens, UniProt O94806);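 note: determined within a kinase panel screen, with PRKCN as the panel member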
[41] = biological target: Dual specificity tyrosine-phosphorylation-regulated kinase 3 (Homo sapiens, UniProt O43781);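 note: measured as one member of a broad kinase panel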
[42] = biological target: MAP kinase-activated protein kinase 2 (Homo sapiens, UniProt P49137);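 note: measured as one member of a kinome-wide kinase panel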
MAP kinase-activated protein kinase 2, sequence (P49137 whole entry, canonical isoform): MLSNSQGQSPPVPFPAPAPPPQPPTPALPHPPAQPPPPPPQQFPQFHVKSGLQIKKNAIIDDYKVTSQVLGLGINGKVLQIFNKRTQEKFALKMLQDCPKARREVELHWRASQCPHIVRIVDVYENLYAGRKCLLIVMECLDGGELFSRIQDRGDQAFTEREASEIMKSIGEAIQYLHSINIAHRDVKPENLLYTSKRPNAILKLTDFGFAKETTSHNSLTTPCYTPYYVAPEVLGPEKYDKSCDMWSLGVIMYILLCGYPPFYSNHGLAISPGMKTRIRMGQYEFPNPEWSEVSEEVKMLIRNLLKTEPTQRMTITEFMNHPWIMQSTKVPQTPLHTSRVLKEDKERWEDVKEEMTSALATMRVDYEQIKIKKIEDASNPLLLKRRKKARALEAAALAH

[43] = biological target: Casein kinase I isoform gamma-1 (Homo sapiens, UniProt Q9HCP0);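 note: measured as the CSNK1G1 member of a kinome profiling panel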
[44] = biological target: BDNF/NT-3 growth factors receptor (Homo sapiens, UniProt Q16620);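 note: NTRK2 measured as one member of a broad kinome-wide kinase profiling panel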
[45] = biological target: Rho-associated protein kinase 1 (Homo sapiens, UniProt Q13464);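 note: measured within a broad kinome-wide panel profiling many kinases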

NC(=O)Cn1cc(-c2cc(-c3cc4ccccc4s3)c3[nH]ncc3c2)c2nc(N)ncc21
Ki [1]: > 10000 nM (inactive)
Ki [2]: 3980 nM (active)
Ki [3]: > 1580 nM (inactive)
Ki [4]: 2510 nM (active)
Ki [5]: > 1580 nM (inactive)
Ki [6]: 1260 nM (active)
Ki [7]: 1000 nM (active)
Ki [8]: > 5010 nM (inactive)
Ki [9]: 631 nM (active)
Ki [10]: > 6310 nM (inactive)
Ki [11]: 631 nM (active)
Ki [12]: 2510 nM (active)
Ki [13]: > 1580 nM (inactive)
Ki [14]: 7940 nM (active)
Ki [15]: > 1580 nM (inactive)
Ki [16]: 126 nM (active)
Ki [17]: > 2510 nM (inactive)
Ki [18]: > 7940 nM (inactive)
Ki [19]: 7.94 nM (active)
Ki [20]: > 7940 nM (inactive)
Ki [21]: 3160 nM (active)
Ki [22]: 2510 nM (active)
Ki [23]: 631 nM (active)
Ki [24]: 200 nM (active)
Ki [25]: > 1580 nM (inactive)
Ki [26]: 39.8 nM (active)
Ki [27]: 63.1 nM (active)
Ki (Ephrin type-A receptor 2): > 3160 nM (inactive)
Ki [28]: 3160 nM (active)
Ki [29]: 39.8 nM (active)
Ki [30]: 50.1 nM (active)
Ki [31]: > 2510 nM (inactive)
Ki [32]: > 2000 nM (inactive)
Ki [33]: 79.4 nM (active)
Ki [34]: 6310 nM (active)
Ki [35]: > 3160 nM (inactive)
Ki [36]: 100 nM (active)
Ki (Misshapen-like kinase 1): 501 nM (active)
Ki [37]: > 7940 nM (inactive)
Ki [38]: > 1580 nM (inactive)
Ki [39]: 2000 nM (active)
Ki [40]: 1000 nM (active)
Ki [41]: 631 nM (active)
Ki [42]: 25.1 nM (active)
Ki [43]: > 6310 nM (inactive)
Ki [44]: > 5010 nM (inactive)
Ki [45]: 1580 nM (active)

— ChEMBL document CHEMBL1201862, “PubChem BioAssay data set” (2004)
